Paper PMC10882719 (Frontiers in Neuroscience, 2024)
Like-named read-outs stand apart in the source and are kept apart here.

Columns and labels:
Assay type in all cases: cell-based
[1] = target: T1, 168 GPCRs (Homo sapiens, UniProt P49683); conditions: PRLHR
T1 construct: host or cells: PathHunter cell lines
T1 sequence (P49683 1-370): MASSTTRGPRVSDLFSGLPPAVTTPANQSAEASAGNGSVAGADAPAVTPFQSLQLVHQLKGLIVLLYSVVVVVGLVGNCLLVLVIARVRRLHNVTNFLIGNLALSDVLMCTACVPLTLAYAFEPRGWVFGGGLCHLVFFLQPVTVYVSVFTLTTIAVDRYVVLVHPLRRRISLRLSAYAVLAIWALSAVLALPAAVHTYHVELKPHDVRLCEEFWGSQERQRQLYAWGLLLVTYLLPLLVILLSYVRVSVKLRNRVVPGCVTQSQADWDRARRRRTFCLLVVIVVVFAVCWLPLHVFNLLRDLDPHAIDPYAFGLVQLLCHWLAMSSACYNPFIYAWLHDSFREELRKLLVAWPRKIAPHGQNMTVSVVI

[2] = target: T2, 168 GPCRs (Homo sapiens, UniProt Q9UKP6); conditions: UTR2
T2 construct: host or cells: PathHunter cell lines
T2 sequence (Q9UKP6 1-389): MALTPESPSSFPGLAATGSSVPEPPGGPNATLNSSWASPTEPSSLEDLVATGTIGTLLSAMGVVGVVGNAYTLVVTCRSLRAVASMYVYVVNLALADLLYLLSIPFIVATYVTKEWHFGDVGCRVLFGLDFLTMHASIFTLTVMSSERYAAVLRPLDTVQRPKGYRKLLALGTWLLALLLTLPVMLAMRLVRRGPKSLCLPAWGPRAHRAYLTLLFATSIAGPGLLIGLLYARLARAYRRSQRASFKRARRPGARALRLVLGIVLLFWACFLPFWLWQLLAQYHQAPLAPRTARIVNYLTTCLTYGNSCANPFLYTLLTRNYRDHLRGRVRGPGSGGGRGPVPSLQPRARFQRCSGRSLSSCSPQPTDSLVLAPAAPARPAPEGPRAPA

[3] = target: T3, 168 GPCRs (Homo sapiens, UniProt P08173)
T3 construct: host or cells: PathHunter cell lines
T3 sequence (P08173 1-479): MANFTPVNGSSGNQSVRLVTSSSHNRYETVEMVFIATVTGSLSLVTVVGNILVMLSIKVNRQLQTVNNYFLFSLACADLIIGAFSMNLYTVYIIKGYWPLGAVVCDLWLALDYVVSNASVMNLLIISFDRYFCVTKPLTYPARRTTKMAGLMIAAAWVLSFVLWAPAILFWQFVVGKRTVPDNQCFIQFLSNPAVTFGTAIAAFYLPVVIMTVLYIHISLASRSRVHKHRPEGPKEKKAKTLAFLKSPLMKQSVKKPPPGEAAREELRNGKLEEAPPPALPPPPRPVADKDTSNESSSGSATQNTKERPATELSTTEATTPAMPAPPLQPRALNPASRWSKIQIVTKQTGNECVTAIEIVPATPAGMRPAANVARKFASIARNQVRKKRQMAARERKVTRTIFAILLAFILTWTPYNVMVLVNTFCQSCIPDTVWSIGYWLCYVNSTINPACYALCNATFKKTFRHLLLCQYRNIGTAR

[4] = target: T4, 168 GPCRs (Homo sapiens, UniProt Q96RI0)
T4 construct: host or cells: PathHunter cell lines
T4 sequence (Q96RI0 18-385): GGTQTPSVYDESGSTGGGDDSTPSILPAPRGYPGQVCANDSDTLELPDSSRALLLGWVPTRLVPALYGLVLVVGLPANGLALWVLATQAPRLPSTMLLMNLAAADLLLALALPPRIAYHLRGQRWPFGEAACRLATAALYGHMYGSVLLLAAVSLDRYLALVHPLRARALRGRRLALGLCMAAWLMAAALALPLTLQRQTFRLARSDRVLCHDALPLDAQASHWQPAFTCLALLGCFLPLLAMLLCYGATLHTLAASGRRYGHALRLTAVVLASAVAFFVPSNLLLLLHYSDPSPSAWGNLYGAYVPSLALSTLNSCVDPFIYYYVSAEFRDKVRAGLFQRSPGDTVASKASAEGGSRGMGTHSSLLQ

[5] = target: T5, 168 GPCRs (Homo sapiens, UniProt P37288); conditions: AVPR1a
T5 construct: host or cells: PathHunter cell lines
T5 sequence (P37288 whole entry): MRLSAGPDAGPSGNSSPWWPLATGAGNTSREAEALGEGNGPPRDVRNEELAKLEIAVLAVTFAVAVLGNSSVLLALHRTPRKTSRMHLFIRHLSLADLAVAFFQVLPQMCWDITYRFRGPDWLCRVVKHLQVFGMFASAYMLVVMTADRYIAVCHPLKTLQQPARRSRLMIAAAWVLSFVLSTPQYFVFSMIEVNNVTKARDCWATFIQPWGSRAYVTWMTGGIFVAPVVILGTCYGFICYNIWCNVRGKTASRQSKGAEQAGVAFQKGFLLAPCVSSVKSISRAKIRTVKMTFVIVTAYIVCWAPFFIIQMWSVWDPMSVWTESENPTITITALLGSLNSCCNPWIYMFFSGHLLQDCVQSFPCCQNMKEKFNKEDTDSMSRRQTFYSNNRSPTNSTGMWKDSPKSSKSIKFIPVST

Row | SMILES | % Agonist Activity ([1]; Conc 1 uM) [%] | % Antagonist Activity ([1]; Conc 1 uM) [%] | % Agonist Activity ([1]; Conc 10 uM) [%] | % Antagonist Activity ([1]; Conc 10 uM) [%] | % Agonist Activity ([2]; Conc 1 uM) [%] | % Antagonist Activity ([2]; Conc 1 uM) [%] | % Agonist Activity ([2]; Conc 10 uM) [%] | % Antagonist Activity ([2]; Conc 10 uM) [%] | % Agonist Activity ([3]; CHRM4, 1 uM) [%] | % Antagonist Activity ([3]; CHRM4, 1 uM) [%] | % Agonist Activity ([3]; CHRM4, 10 uM) [%] | % Antagonist Activity ([3]; CHRM4, 10 uM) [%] | % Agonist Activity ([4]; F2RL3, 1 uM) [%] | % Antagonist Activity ([4]; F2RL3, 1 uM) [%] | % Agonist Activity ([4]; F2RL3, 10 uM) [%] | % Antagonist Activity ([4]; F2RL3, 10 uM) [%] | % Agonist Activity ([5]; 1 uM) [%] | % Antagonist Activity ([5]; 1 uM) [%] | % Agonist Activity ([5]; 10 uM) [%] | % Antagonist Activity ([5]; 10 uM) [%]
1 | CNC(C)C(=O)c1ccc2c(c1)OCO2 (stereo not shown) [methylone] | -2.2 | 17.8 | -0.2 | 15.8 | 0.6 | -2.1 | 0 | 4.2 | -5.8 | 10.2 | -6.2 | 6.7 | 4.3 | -11.3 | 7 | -6.9 | -0.6 | -3 | -0.5 | 2.8
2 | CNC(C)Cc1ccc2c(c1)OCO2 (stereo not shown) [MDMA, 3,4-Methylenedioxy methamphetamine, reference compound] | 1.5 | 6 | -0.3 | 10.8 | -1.1 | 4.4 | -0.1 | 14.3 | -1.8 | 32.8 | -3.2 | 26.3 | 10.8 | 9.6 | 8.5 | 13.3 | -0.2 | -3.6 | -0.4 | 4.5
